Data reported in patent US7304129B2 (Imperial Innovations Limited, priority 2000, dated 2007).
Several values for one entry are separate records, joined by “and”; a condition that tells them apart may be missing. Equal entries are not always repeated. Entries after “also recorded” stand apart in the source; their conditions may differ. No end group written: not given here.

Legend:
[1] = tested on: rat cerebellar granule neurons cultured on monolayers of NIH 3T3 fibroblasts; experiment: in vitro neurite outgrowth co-culture assay (axon regeneration); assay type: cell-based; details: for stimulation of neurite outgrowth (in words): agent included in coculture medium, 16 hour culture; for peptide concentration giving maximal effects in neurite outgrowth assay: rat cerebellar neurons on 3T3 monolayer, 16 hours
Experimental: An example of such an assay is a co-culture assay in which neurons are cultured on top of cellular monolayers for 16 hours, before being fixed and stained with a neuron-specific antibody. The mean length of the longest neurite per cell can then be determined by fluorescence microscopy using an appropriate image analysis programme. The neurons may be, for example, (in this case cerebellar granule cell neurons, hippocampal, dorsal root ganglion, olfactory, motor or dopaminergic neurons. The cellular monolayer is, for example NIH 3T3 fibroblasts.
Monolayers of NIH 3T3 fibroblasts were established by seeding 80,000 cells per well in Lab-Tek 8-chamber slides previously coated sequentially with poly-L-lysine and fibronectin and culturing them overnight in DMEM+10% FCS growth medium.
Cerebellum was dissected from post-natal day 2-4 rat pups and the meninges and extraneous tissue discarded. Cerebellum was chopped into small pieces and trypsinised for 10 minutes at 37° C. Trypsin was neutralised using growth medium and the cells pelletted at 1000×g for 7 minutes. Cerebellar neurons were then resuspended in SATO growth medium containing 2% FCS, counted, and plated on top of the fibroblast monolayer at a density of 1,500 neurons per well. After 16 hours, cocultures were fixed with 4% para-formaldehyde and stained with an anti-GAP43 neuron-specific antibody, which was a gift from Dr Graham Wilkin, Imperial College Department of Biochemistry, London, but any other neuron-specific marker can be used.
The mean neurite length of 150-200 neurons per well was determined using a fluorescent microscope and Zeiss KS300 imaging software.
Peptides A, A(d), B, C, D, E, and F were each incorporated in the SATO medium at a range of concentrations from 0 to 200 μg/ml. Nerve growth factor (NGF) and fibroblast growth factor (FGF2) were used as controls at the same range of concentrations.

[2] = tested on: cerebellar neurones expressing a dominant-negative form of FGF receptors; experiment: neurite outgrowth of cerebellar neurones from transgenic mice expressing dominant-negative FGF receptors; assay type: cell-based; details: neurons unable to signal through the FGF receptor; listed as Ac-DRVEPYSSTA-amide
NIH 3T3 fibroblasts = experiment: survival of 3T3 fibroblasts in serum-free DMEM (MTS and morphologic method, Example 5a); assay type: cell-based; details: in the presence of FGF
Experimental: NIH 3T3 fibroblasts were plated in each well of a 96-well microtitre plate at a density of 7,000 cells per well in DMEM containing 3% FCS and left to attach overnight. The following day the growth medium was removed and replaced with 0.1 ml DMEM supplemented with FGF or Peptide A(d) or both, eight wells for each condition. The negative control was DMEM alone (maximal cell death) and the positive control was supplementation with 0.5% FCS (maximal cell survival).
Six days later (seven days from first plating the cells), the relative number of living cells in each well was assessed by adding the mitochondrial substrate MTS, [3-(4,5-dmethylthiazol-2-yl)-5-(3-carboxymethoxyphenyl)-2-(4-sulphophenyl)-2H-tetrazolium, inner salt), for four hours before reading the optical density on a microtitre plate reader at a wavelength of 490 nm. The optical density gives a measure of the number of respiring cells present in each well at the end of the assay period.
In addition to the biochemical assay, survival was assessed qualitatively using a morphologic method in which cells were plated in 8-chamber Lab Tek slides in DbEM alone (negative control), or DMEM supplemented with 0.5 ng/ml FGF2; 0.5% FCS (positive control), or 25-200 μg/ml Peptide A(d). After three days the cells were fixed with 4% paraformaldehyde, permeablised with methanol and stained with TRITC-conjugated falloidin to visualise the cell cytoskeleton.

NIH 3T3 cells [3] = experiment: NIH 3T3 cell survival MTS assay in serum-free DMEM (Example 6); assay type: cell-based; details: for survival of NIH3T3 cells: low-density cultures; for survival of NIH3T3 cells in serum-free conditions (in words): FGF2 only at low concentrations
Experimental: NIH 3T3 cells are plated in 96-well plates at a density of 5,500 cells/well in 100 μl DMEM containing 0.5% FCS. After 24 hours, this medium is aspirated from the wells and replaced with 100 μl serum-free DMEM alone, or supplemented with 0.5% FCS (positive control), or a single potential survival factor, with four identical wells set up for each condition. The cells are left for up to seven days at 37 degrees and 8% CO2 before the cell survival is determined using an MTS assay. In this assay 20 μl of MTS substrate is added to each 100 μl well and the plate left in the incubator for up to four hours. Respiring cells produce a coloured reaction product that can be read using a spectrophotometer at 490 nm. […] The mean absorbance at 490 nm+/−SEM is determined for the four identically set up wells. Wells containing a known survival factor such as insulin will contain more living cells after three days than cells cultured in unsupplemented medium.

L6 cell line = experiment: survival of L6 cell line lacking FGF receptors; assay type: cell-based; details: FGF2 0.1, 1 and 10 ng/ml; Peptide A(d) 100 and 400 μg/ml
Experimental: FIG. 2d compares the effects of DMEM, FCS, FGF2 at 0.1, 1 and 10 ng/ml, insulin at 0.5 and 5 μg/ml, and Peptide A(d) at 100 and 400 μg/ml.

MAP kinase = experiment: Western blot for tyrosine phosphorylated MAP kinase in NIH 3T3 cells; assay type: cell-based; details: 10 minutes
Experimental: A Western blot (FIG. 2f) was obtained as follows: one million NIH 3T3 cells were serum starved for 24 hours then challenged with the following agents: DMEM, 10% FCS, 0.1 ng/ml FGF2, 1 ng/ml FGF2, 10 ng/ml FGF2, 5 μg/ml insulin, 400 μg/ml peptide 52 for 10 minutes at 37 degrees Celsius before being lysed in sample buffer and band separated by PAGE. Proteins were transferred to PVDF membranes and probed with an antibody that recognises tyrosine phosphorylated MAP kinse (upper panel).

DRG neurons = assay type: cell-based, rat; details: 10 ng/ml, 10 days in SATO medium
Experimental: DRG neurons were taken from embryonic day 16 rates and cultured at a density of-10,000 cells/well of a 96-well plate-over 10 days in SATO medium, unsupplemented or supplemented with 10 ng/ml NGF, 10 ng/ml FGF2 or 800 ng/ml Peptide A(d). An OD of 100% reflects the baseline cell survival n the absence of any supplement in the medium.

NIH 3T3 cells [4] = experiment: NIH 3T3 survival and morphology, TRITC-conjugated phalloidin staining; assay type: cell-based; details: three days
NIH3T3 cells = experiment: cell survival/proliferation at two plating densities
Text: FGF2 is a mitogen for a range of cells, including NIH3T3 cells.

[5] = tested on: cells in S phase (bromodeoxyuridine incorporation into DNA); experiment: bromodeoxyuridine incorporation (entry into S phase) mitogenicity assay; assay type: cell-based; details: six hours
Experimental: The mitogenicity of an agent can be determined by testing its ability to stimulate entry of cells into ‘S’ phase in readiness for cell division. This is done by standard methodology and involves incubating cells in the presence of a potential mitogen in DMEM supplemented with bromodeoxyuridine. After six hours the cells are fixed and stained with an antibody recognising bromodeoxyuridine. Cells in S phase can be distinguished by their incorporation of bromodeoxyuridine into DNA.

[6] = tested on: Oligodendrocyte progenitors (O4 positive); assay type: cell-based, rat; details: six days in culture, medium supplemented with insulin
Text: Oligodendrocyte progenitors (O4 positive) are purified from postnatal day 4 rat cerebral cortex. First a trypsinised preparation of cortical cells is dissociated to single cell suspension and pre-plated to remove unwanted adherent cells such as microglia and macrophages. Oligodendrocyte progenitors express the O4 antigen, and can be purified by panning on petri-dishes coated with anti O4 antibodies. Unbound cells are removed by gentle washing, then O4 positive cells are removed by triturating them off the plate with DMEM containing 1% FCS, through a flame-polished pasteur pipette. O4 positive cells are plated on polyornithine-coated glass coverslips at a density of 500,000 cells per well in minimal growth medium containing insulin or the peptide Ac-DRVEPYSSTA[lys]2[lys] i.e. [{Ac-DRVEPYSSTA}2-K]2-K-OH, Peptide A(d), for six days, before being fixed and stained with the anti O4 antibody. Viable O4 positive cells are counted for each condition

[7] = insulin 0.5 pg/ml, FGF2 0.1 ng/ml, Peptide A(d) 10 ng/ml

Row | Substance | stimulation of neurite outgrowth (in words) [1] | peptide concentration giving maximal effects in neurite outgrowth assay [1] | survival of NIH3T3 cells in serum-free conditions (in words) (NIH 3T3 cells [3]) | other results
1 | Acetyl-DAVEPYSSTA-amide (Ac-DAVEPYSSTA-NH2) [Peptide F] | retain the full ability to stimulate neurite outgrowth |  |  | 
2 | Acetyl-DRVEPYSSTA-amide (Ac-DRVEPYSSTA-NH2) [Peptide A] | full activity was retained | 100-200 μg/ml and 100-200 μM |  | effect on neurite outgrowth stimulated by FGF2 ([1]; peptide at low concentration (25 μM), listed as Ac-DRVEPYSSTA-amide): inhibits neurite outgrowth stimulated by FGF2; neurite extension in response to the peptide [2]: unable to extend neurites; also recorded: not able to extend neurites
3 | FGF2: fibroblast growth factor (FGF2) | approximately doubles; also recorded: stimulates neurite outgrowth in this assay with a biphasic dose-response curve |  | stimulate dose-dependent survival | cells remaining compared with the peptide (NIH 3T3 fibroblasts): far fewer cells remaining; survival of NIH3T3 cells (NIH 3T3 cells [3]; FGF2 1 ng/ml): ineffective; survival of NIH3T3 cells (NIH 3T3 cells [3]; FGF2 10 ng/ml, three days): stimulates apoptosis; survival of L6 cell line (L6 cell line): unable to stimulate the survival; MAP kinase activation (MAP kinase; FGF2 0.1 ng/ml): did not; also recorded: do not; MAP kinase activation (MAP kinase; FGF2 1 or 10 ng/ml): resulted in MAP kinase activation; also recorded: stimulate MAP kinase activation; increase in DRG neuron survival over unsupplemented baseline (DRG neurons): 73%; cell survival / morphology (NIH 3T3 cells [4]; FGF2 1 and 10 ng/ml): reduced in number, and appear apoptotic; cell survival / morphology (NIH 3T3 cells [4]; [7]): stimulate cell survival; effect on cells plated at low density (NIH3T3 cells; 5,500 cells per well, 10 ng/ml FGF2): stimulates apoptosis; mitogenicity (entry into S phase) ([5]; FGF2 0.1 ng/ml): unable to stimulate entry into S phase; mitogenicity (entry into S phase) ([5]; FGF2 10 ng/ml): mitogenicity of 10 ng/ml FGF2 can be seen
4 | Ac-ARSEPYSSTA-amide (Ac-ARSEPYSSTA-NH2) | do not |  |  | 
5 | NGF: Nerve growth factor (NGF) | approximately doubles |  |  | increase in DRG neuron survival over unsupplemented baseline (DRG neurons): 121%
6 | Ac-SIDRVEPYSSTAQ-amide (Ac-SIDRVEPYSSTAQ-NH2) [synthetic 13 amino acid peptide derived from the first fibronectin type III domain of NCAM] | dose-dependent increase in neurite outgrowth |  |  | concentration at which neurite length equalled that stimulated by NCAM [1]: 100 µM
7 | Acetyl-DRVE-amide (Ac-DRVE-NH2) [Peptide B] | could stimulate the response | 75 μg/ml and 150 μM | able to stimulate cell survival | 
8 | Acetyl-EGME-amide [Peptide C] | stimulates neurite outgrowth to the same extent as Ac-DRVE-amide | 38 μg/ml and 75 μM | able to stimulate cell survival | 
9 | Acetyl-EGMEGM-amide (Ac-EGMEGM-NH2) [Peptide D] | equally active | 100 µM |  | 
10 | insulin: known survival factor |  |  | stimulate dose-dependent survival | MAP kinase activation (MAP kinase; insulin 5 μg/ml): showed a small activation; also recorded: do not; cell survival / morphology (NIH 3T3 cells [4]; [7]): stimulate cell survival; cells originally plated that survive [6]: 25%; cell proliferation (NIH3T3 cells; 11,000 cells per well, FGF2 10 ng/ml): stimulates cell proliferation
11 | [{Ac-ARSEPYSSTA}2-K]2-K-OH (also: branched lysine tetramer: four chains on [K]2-K core, core C-terminus free acid (-OH)) [Ac-ARSEPYSSTA [lys]2[lys], "mutated" multimeric peptide] |  |  | stimulated cell survival, though not as potently as the parent peptide | 
12 | Ac-ARVEPYSSTA-amide (Ac-ARVEPYSSTA-NH2) | do not |  |  | 
13 | Ac-PYSSTA-NH2 | unable to stimulate neurite outgrowth |  |  | effect on NCAM-stimulated neurite outgrowth ([1]; NCAM-stimulated, low peptide concentrations): able to inhibit NCAM-stimulated neurite outgrowth
14 | soluble NCAM: soluble NCAM (Neuronal Cell Adhesion Molecule) | approximately doubles |  |  | 
15 | Acetyl-DRSEPYSSTA-amide (Ac-DRSEPYSSTA-NH2) [Peptide E] | retain the full ability to stimulate neurite outgrowth | 50-100 μg/ml and 50-100 μM |  | 
16 | [{Ac-ADTRSVSEYP}2-K]2-K-OH (also: branched lysine tetramer: four chains on [K]2-K core, core C-terminus free acid (-OH)) [Ac-ADTRSVSEYP [lys]2[lys], 'scrambled' version of Peptide A(d)] |  |  | ineffective | 
